Key:
[1] = relative permittivity at various frequencies (dimensionless); details: 100 kPa, Liquid, Frequency=1 MHz, Parallel plate capacitor
[2] = relative permittivity at various frequencies (dimensionless); xn = mol fraction of the nth substance listed; details: 100 kPa, Liquid, Frequency=1 MHz, Parallel plate capacitor

CCCO [propan-1-ol]
[1]
Details	relative permittivity
293.15 K	21.23
298.15 K	20.54
303.15 K	19.84

CCCCCCCCCCO [decan-1-ol]
[1]
Details	relative permittivity
293.15 K	8.41
298.15 K	8.01
303.15 K	7.64

CCCCO [butan-1-ol]
[1]
Details	relative permittivity
293.15 K	18.21
298.15 K	17.58
303.15 K	16.95

CCCO [propan-1-ol] + NC1CCCCC1
[2], x1 = 1
Details	relative permittivity
293.15 K	21.23
298.15 K	20.54
303.15 K	19.84

CCCCCCCO [heptan-1-ol]
[1]
Details	relative permittivity
293.15 K	11.97
298.15 K	11.47
303.15 K	10.98

CCCCCCCO [heptan-1-ol] + NC1CCCCC1
[2], x1 = 1
Details	relative permittivity
293.15 K	11.97
298.15 K	11.47
303.15 K	10.98

NC1CCCCC1 [cyclohexylamine]
[1]
Details	relative permittivity
293.15 K	4.62
298.15 K	4.53
303.15 K	4.45

NC1CCCCC1 [cyclohexylamine] + CCCO
relative permittivity, [2]
Details	293.15 K	298.15 K	303.15 K
x2 = 0	4.62	4.53	4.45
x2 = 0.034	4.88	4.78	4.68
x2 = 0.1154	5.64	5.08	5.37
x2 = 0.213	6.58	6.42	6.26
x2 = 0.3031	7.66	7.46	7.26
x2 = 0.3996	9.02	8.76	8.5
x2 = 0.4469	9.77	9.48	9.19
x2 = 0.4962	10.61	10.29	9.97
x2 = 0.5499	11.61	11.25	10.89
x2 = 0.6056	12.69	12.29	11.9
x2 = 0.6998	14.69	14.24	13.79
x2 = 0.7953	16.94	16.43	15.92
x2 = 0.8464	18.08	17.54	17.01
x2 = 0.8913	19.21	18.71	18.14
x2 = 0.9509	20.44	19.85	19.21
x2 = 0.9798	21.09	20.41	19.77

NC1CCCCC1 [cyclohexylamine] + CCCCCCCCCCO
relative permittivity, [2]
Details	293.15 K	298.15 K	303.15 K
x2 = 0	4.62	4.53	4.45
x2 = 0.0561	4.87	4.78	4.69
x2 = 0.1027	5.05	4.95	4.85
x2 = 0.2012	5.4	5.29	5.19
x2 = 0.2947	5.73	5.6	5.49
x2 = 0.4077	6.09	5.95	5.82
x2 = 0.5107	6.42	6.26	6.11
x2 = 0.5522	6.56	6.38	6.22
x2 = 0.604	6.72	6.53	6.36
x2 = 0.6528	6.88	6.68	6.5
x2 = 0.697	7.02	6.81	6.61
x2 = 0.7474	7.2	6.97	6.76
x2 = 0.7859	7.34	7.09	6.87
x2 = 0.8348	7.54	7.27	7.02
x2 = 0.8915	7.81	7.51	7.22
x2 = 0.942	8.08	7.73	7.41

From the NIST ThermoML archive (doi:10.1016/j.jct.2015.07.032)
